How the values were obtained:
Assay type in all cases: in vivo
wheat = test: Test Example 4: effect on crop by soil treatment (symbol e); details: for e: wheat, effect grade on crop: 320 g/ha
How it was run: (§1)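 The test used sterilized diluvial soil. Seed was set down in spots and overlaid with about 1.5 cm of soil before growth in a greenhouse kept at 25° C. to 30° C.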

[1] = system: Echinochloa oryzacola Vasing.; test: Test Example 2: herbicidal activity, application during weed generation in submerged conditions (symbol A); details: Table 23; application herbicide amount 320 g/ha; grade 0-5 by criteria of Test Example 1
How it was run: (§2)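 Steps: fill pots with alluvial soil; add water to 4 cm depth; co-sow the three weeds; grow at 25° C. to 30° C. under glass; at 1–2 leaves, dose the floodwater with diluted emulsion; rate damage visually after 3 weeks.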

beet [2] = test: Test Example 5: effect on crop by foliage application, plastic box (symbol f); details: 320 g/ha, 3 weeks after application
How it was run: (§3)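 Box culture: sterile diluvial soil, seeds spot-sown, ~1.5 cm cover, raised under glass at 25–30° C.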

Galium spurium [3] = test: Test Example 4: herbicidal effect by soil treatment (symbol Q); details: for Q: Galium spurium, herbicidal effect grade: 320 g/ha
How it was run: (§4)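 Seeds were sown in sterilized diluvial soil, covered with about 1.5 cm of soil, and the soil surface was sprayed with a water-diluted emulsion of the compound at a predetermined rate. Plants grew in a greenhouse at 25° C. to 30° C.; effects were scored visually 3 weeks after application.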

beet [4] = test: Test Example 4: effect on crop by soil treatment (symbol f); details: for f: beet, effect grade on crop: 320 g/ha
How it was run: as §1

Scirpus juncoides = test: Test Example 2: herbicidal activity, application during weed generation in submerged conditions (symbol B); details: Table 23; application herbicide amount 320 g/ha; grade 0-5 by criteria of Test Example 1
How it was run: as §2

Monochoria vaginalis [5] = test: Test Example 1: herbicidal activity, application before weed generation in submerged conditions (symbol C); details: application herbicide amount 320 g/ha
How it was run: (§5)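 Flooded alluvial soil (4 cm water) was mixed-sown with the three weed species, and 2.5-leaf rice seedlings were transplanted. On sowing day, a water-diluted emulsion at a predetermined rate was applied to the water surface. After 3 weeks in a 25–30 °C greenhouse, effect was scored 0–5.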

Alopecurus myosuroides = test: Test Example 5: herbicidal effect by foliage application, plastic box (symbol J); details: 320 g/ha, 3 weeks after application
How it was run: (§6)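 Effect is rated 3 weeks after a foliar spray of water-diluted emulsion concentrate at a predetermined herbicide amount. Plants had grown 14 days in a 25° C. to 30° C. greenhouse from seed in sterilized diluvial soil.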

[6] = system: Echinochloa oryzacola Vasing.; test: Test Example 1: herbicidal activity, application before weed generation in submerged conditions (symbol A); details: application herbicide amount 320 g/ha
How it was run: as §5

Monochoria vaginalis [7] = test: Test Example 2: herbicidal activity, application during weed generation in submerged conditions (symbol C); details: Table 23; application herbicide amount 320 g/ha; grade 0-5 by criteria of Test Example 1
How it was run: as §2

corn = test: Test Example 4: effect on crop by soil treatment (symbol c); details: for c: corn, effect grade on crop: 320 g/ha
How it was run: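 Grown at 25° C. to 30° C. in a greenhouse, the crops came from seed sown spot-wise in sterilized diluvial soil under roughly 1.5 cm of covering soil.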

Amaranthus retroflexus = test: Test Example 5: herbicidal effect by foliage application, plastic box (symbol N); details: 320 g/ha, 3 weeks after application
How it was run: as §6

Abutilon theophrasti = test: Test Example 4: herbicidal effect by soil treatment (symbol M); details: for M: Abutilon theophrasti, herbicidal effect grade: 320 g/ha
How it was run: as §4

Galium spurium [8] = test: Test Example 5: herbicidal effect by foliage application, plastic box (symbol Q); details: 320 g/ha, 3 weeks after application
How it was run: as §6

rice plant = test: Test Example 5: effect on crop by foliage application, plastic box (symbol b); details: 320 g/ha, 3 weeks after application
How it was run: as §3

Lolium multiflorum Lam. = test: Test Example 5: herbicidal effect by foliage application, plastic box (symbol K); details: 320 g/ha, 3 weeks after application
How it was run: as §6

Setaria viridis = test: Test Example 4: herbicidal effect by soil treatment (symbol G); details: for G: Setaria viridis, herbicidal effect grade: 320 g/ha
How it was run: as §4

[9] = application herbicide amount 320 g/ha

SMILES	e: wheat, effect grade on crop (wheat)	Herbicidal effect grade, A: Echinochloa oryzacola Vasing. [1]	f: beet, effect on crop (criteria 0-5) (beet [2])	Q: Galium spurium, herbicidal effect grade (Galium spurium [3])	f: beet, effect grade on crop (beet [4])	Herbicidal effect grade, B: Scirpus juncoides (Scirpus juncoides)	Herbicidal effect grade, C: Monochoria vaginalis (Monochoria vaginalis [5])	J: Alopecurus myosuroides, herbicidal effect (criteria 0-5) (Alopecurus myosuroides)	Herbicidal effect grade, A: Echinochloa oryzacola Vasing. [6]	Herbicidal effect grade, C: Monochoria vaginalis (Monochoria vaginalis [7])	c: corn, effect grade on crop (corn)	N: Amaranthus retroflexus, herbicidal effect (criteria 0-5) (Amaranthus retroflexus)	M: Abutilon theophrasti, herbicidal effect grade (Abutilon theophrasti)	Q: Galium spurium, herbicidal effect (criteria 0-5) (Galium spurium [8])	b: directly sowed rice plant, effect on crop (criteria 0-5) (rice plant)	K: Lolium multiflorum Lam., herbicidal effect (criteria 0-5) (Lolium multiflorum Lam.)	G: Setaria viridis, herbicidal effect grade (Setaria viridis)	further results
CC(CC1CC(O)=C(c2c(C)cc(C)cc2C)C1=O)=NOCCS(C)(=O)=O (stereo not shown) [1-110]	5 (Herbicidal ratio of 90% or more (almost completely withered))	2 (Herbicidal ratio of 20% or higher and lower than 40%)	0 (Herbicidal ratio of 5% or lower (almost no effect))	0 (Herbicidal ratio of 5% or lower (almost no effect))	0 (Herbicidal ratio of 5% or lower (almost no effect))	0 (Herbicidal ratio of 5% or lower (almost no effect))	0 (Herbicidal ratio of 5% or lower (almost no effect))	5 (Herbicidal ratio of 90% or more (almost completely withered))	3 (Herbicidal ratio of 40% or higher and lower than 70%)	0 (Herbicidal ratio of 5% or lower (almost no effect))	4 (Herbicidal ratio of 70% or higher and lower than 90%)	0 (Herbicidal ratio of 5% or lower (almost no effect))	0 (Herbicidal ratio of 5% or lower (almost no effect))	3 (Herbicidal ratio of 40% or higher and lower than 70%)	5 (Herbicidal ratio of 90% or more (almost completely withered))	5 (Herbicidal ratio of 90% or more (almost completely withered))	5 (Herbicidal ratio of 90% or more (almost completely withered))	–
CON=C(C)CC1CC(OC(=O)CN(C)C(=O)c2ccccc2)=C(c2c(C)cc(C)cc2C)C1=O (stereo not shown) [1-139]	3 (Herbicidal ratio of 40% or higher and lower than 70%)	5 (Herbicidal ratio of 90% or more (almost completely withered))	0 (Herbicidal ratio of 5% or lower (almost no effect))	0 (Herbicidal ratio of 5% or lower (almost no effect))	0 (Herbicidal ratio of 5% or lower (almost no effect))	4 (Herbicidal ratio of 70% or higher and lower than 90%)	1 (Herbicidal ratio of 5% or higher and lower than 20%)	5 (Herbicidal ratio of 90% or more (almost completely withered))	5 (Herbicidal ratio of 90% or more (almost completely withered))	1 (Herbicidal ratio of 5% or higher and lower than 20%)	5 (Herbicidal ratio of 90% or more (almost completely withered))	0 (Herbicidal ratio of 5% or lower (almost no effect))	4 (Herbicidal ratio of 70% or higher and lower than 90%)	3 (Herbicidal ratio of 40% or higher and lower than 70%)	5 (Herbicidal ratio of 90% or more (almost completely withered))	5 (Herbicidal ratio of 90% or more (almost completely withered))	5 (Herbicidal ratio of 90% or more (almost completely withered))	–
CC#Cc1cc(C)c(C2=C(O)CC(CC(=NOC)C3CC3)C2=O)c(C)c1 (stereo not shown) [9-008]	–	5 (Herbicidal ratio of 90% or more (almost completely withered))	–	–	–	4 (Herbicidal ratio of 70% or higher and lower than 90%)	–	–	–	3 (Herbicidal ratio of 40% or higher and lower than 70%)	–	–	–	–	–	–	–	Effect on crop grade, e: wheat (wheat; [9]): 5 (Herbicidal ratio of 90% or more (almost completely withered)); f: beet, effect on crop grade (beet [2]): 0 (Herbicidal ratio of 5% or lower (almost no effect)); Herbicidal effect grade, Q: Galium spurium (Galium spurium [3]; [9]): 0 (Herbicidal ratio of 5% or lower (almost no effect)); Effect on crop grade, f: beet (beet [4]; [9]): 0 (Herbicidal ratio of 5% or lower (almost no effect)); C (Monochoria vaginalis) herbicidal effect grade (Monochoria vaginalis [5]): 4 (Herbicidal ratio of 70% or higher and lower than 90%); J: Alopecurus myosuroides, herbicidal effect grade (Alopecurus myosuroides): 5 (Herbicidal ratio of 90% or more (almost completely withered)); A (Echinochloa oryzacola Vasing.) herbicidal effect grade [6]: 5 (Herbicidal ratio of 90% or more (almost completely withered)); Effect on crop grade, c: corn (corn; [9]): 4 (Herbicidal ratio of 70% or higher and lower than 90%); N: Amaranthus retroflexus, herbicidal effect grade (Amaranthus retroflexus): 0 (Herbicidal ratio of 5% or lower (almost no effect)); Herbicidal effect grade, M: Abutilon theophrasti (Abutilon theophrasti; [9]): 4 (Herbicidal ratio of 70% or higher and lower than 90%); Q: Galium spurium, herbicidal effect grade (Galium spurium [8]): 2 (Herbicidal ratio of 20% or higher and lower than 40%); b: directly sowed rice plant, effect on crop grade (rice plant): 5 (Herbicidal ratio of 90% or more (almost completely withered)); K: Lolium multiflorum Lam., herbicidal effect grade (Lolium multiflorum Lam.): 5 (Herbicidal ratio of 90% or more (almost completely withered)); Herbicidal effect grade, G: Setaria viridis (Setaria viridis; [9]): 5 (Herbicidal ratio of 90% or more (almost completely withered))
CC(CC1CC(O)=C(c2c(C)cc(C)cc2C)C1=O)=NOCc1cccc(C(F)(F)F)c1 (stereo not shown) [1-117]	0 (Herbicidal ratio of 5% or lower (almost no effect))	4 (Herbicidal ratio of 70% or higher and lower than 90%)	0 (Herbicidal ratio of 5% or lower (almost no effect))	0 (Herbicidal ratio of 5% or lower (almost no effect))	0 (Herbicidal ratio of 5% or lower (almost no effect))	3 (Herbicidal ratio of 40% or higher and lower than 70%)	5 (Herbicidal ratio of 90% or more (almost completely withered))	5 (Herbicidal ratio of 90% or more (almost completely withered))	5 (Herbicidal ratio of 90% or more (almost completely withered))	3 (Herbicidal ratio of 40% or higher and lower than 70%)	0 (Herbicidal ratio of 5% or lower (almost no effect))	1 (Herbicidal ratio of 5% or higher and lower than 20%)	0 (Herbicidal ratio of 5% or lower (almost no effect))	0 (Herbicidal ratio of 5% or lower (almost no effect))	5 (Herbicidal ratio of 90% or more (almost completely withered))	5 (Herbicidal ratio of 90% or more (almost completely withered))	5 (Herbicidal ratio of 90% or more (almost completely withered))	–
CC(CC1CC(O)=C(c2c(C)cc(C)cc2C)C1=O)=NOCc1ccccc1C(F)(F)F (stereo not shown) [1-116]	0 (Herbicidal ratio of 5% or lower (almost no effect))	2 (Herbicidal ratio of 20% or higher and lower than 40%)	0 (Herbicidal ratio of 5% or lower (almost no effect))	0 (Herbicidal ratio of 5% or lower (almost no effect))	0 (Herbicidal ratio of 5% or lower (almost no effect))	3 (Herbicidal ratio of 40% or higher and lower than 70%)	5 (Herbicidal ratio of 90% or more (almost completely withered))	5 (Herbicidal ratio of 90% or more (almost completely withered))	5 (Herbicidal ratio of 90% or more (almost completely withered))	2 (Herbicidal ratio of 20% or higher and lower than 40%)	0 (Herbicidal ratio of 5% or lower (almost no effect))	0 (Herbicidal ratio of 5% or lower (almost no effect))	2 (Herbicidal ratio of 20% or higher and lower than 40%)	1 (Herbicidal ratio of 5% or higher and lower than 20%)	4 (Herbicidal ratio of 70% or higher and lower than 90%)	5 (Herbicidal ratio of 90% or more (almost completely withered))	3 (Herbicidal ratio of 40% or higher and lower than 70%)	–

Source: patent publication US11000033B2, “Ketone or oxime compound, and herbicide” (NISSAN CHEMICAL CORPORATION, priority 2014, dated 2021)
